Test results taken from patent US8536332B2, “Modulating signal transduction pathways with substituted pyridol [2,3-b] pyrazines” (Aeterna Zentaris GmbH, priority 2007, dated 2013).

Columns and labels:
[1] = tested on: MDA-MB468; test: XTT assay, anti-proliferative activity, MDA-MB468; format: cell-based; conditions: Homo sapiens, MDA-MB-468; 45 h incubation
Description: (§1) The principle of this test is based on the intracellular reduction of the tetrazolium dye XTT (sodium 3′-[1-(phenylaminocarbonyl)-3,4-tetrazolium]bis(4-methoxy-6-nitro)benzenesulphonic acid, Sigma) to a formazan dye by mitochondrial dehydrogenases. The dye is formed only by metabolically active cells. Its photometrically measurable intensity is a quantitative indicator for the presence of living cells. The reduction in the dye formation as a result of incubation of the cells with substances serves as a parameter for the anti-proliferative activity.
(§2) The tumour cell lines (ATCC) were seeded in 96-well microtitre plates in a defined cell count (5000 cells/well for Hct116; 10000 cells/well for MDA MB468), and incubated overnight at 37° C., 5% CO2 and 95% air humidity. The test substances were made up as stock solutions (10 mM) in DMSO. […] The cell plates were then incubated for 45 h at 37° C., 5% CO2 and 95% air humidity.
(§3) For the detection reaction, the XTT substrate was mixed with PMS (N-methyldibenzopyrazine methylsulphate, Sigma) and added to the cells, to result in a final concentration of 325 μg of XTT/ml and 2.5 μg PMS/ml. The mixture was then incubated for 3 h at 37° C., 95% air humidity. Subsequently the formazan salt formed by cellular dehydrogenases was quantified at an absorption of 490 nm.
(§4) The evaluation of the % inhibition values was done by means of the following formula from the values for the optical densities measured in each case at 490 nm:
(§5) The controls were determined 8 fold, the substance samples 2 fold. 0% control contained no cells and the 100% control contained no test substance. The EC50 values were determined with GraphPadPrism.

[2] = molecular target: T1, Erk2 (Mus musculus, UniProt P63085); test: Cell-free kinase assay Erk2-ALPHA; format: biochemical, human; conditions: 10 μM ATP
T1 construct: purchased Upstate #14-173
T1 sequence (P63085 whole entry): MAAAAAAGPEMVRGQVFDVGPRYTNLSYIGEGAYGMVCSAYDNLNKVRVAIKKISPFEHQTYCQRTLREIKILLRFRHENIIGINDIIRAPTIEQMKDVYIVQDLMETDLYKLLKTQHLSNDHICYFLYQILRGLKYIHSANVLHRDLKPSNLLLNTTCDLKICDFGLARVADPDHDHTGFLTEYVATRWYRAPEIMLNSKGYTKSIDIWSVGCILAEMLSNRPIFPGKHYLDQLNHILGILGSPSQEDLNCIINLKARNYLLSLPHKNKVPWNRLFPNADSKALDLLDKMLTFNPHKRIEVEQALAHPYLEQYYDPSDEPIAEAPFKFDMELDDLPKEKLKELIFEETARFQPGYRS
Description: (§6) The inhibitory effect of the compounds of the invention was tested on various human serine/threonine kinases, tyrosine kinases and lipid kinases in enzymatic assays. Recombinant human kinases, for example PI3Kalpha, -beta, -gamma, -delta, Erk2, p38alpha, p38gamma, Jnk1, Jnk2 and others were used, in some cases as full-length kinases, in some cases as truncated fragments—but at least consisting of the functional kinase domains. The commercial kinase proteins (Proqinase, Upstate) were used as recombinant fusion proteins with GST (glutathione S-transferase) tag or His tag. Depending on the substrate type, the different kinase reactions were quantified by suitable ALPHA™ beads (PerkinElmer).
(§7) The kinase assays for PI3K and Erk are described in detail and selected test results are cited below. […] Subsequently, the kinase reaction was stopped by adding the ALPHA bead mix (10 μg/ml, #6760603/PerkinElmer), preincubated with 1 nM GST:Grp1 fusion protein (Upstate) and […] (#C-39B6/Echelon) in 50 mM Hepes, 50 mM NaCl, 50 mM EDTA and 0.1% BSA, and left to stand overnight. • b) Erk2-ALPHA: The test substance, 0.625 ng of Erk2 (#14-173, Upstate), 10 μM ATP and 15 nM biotinylated MBP (myelin basic protein) substrate were incubated on a 384-well Optiplate (Perkin Elmer) in a volume of 15 μl for 1 h in 25 mM Tris, 10 mM MgCl2, 0.1% Tween-20, 100 μM NaVO4, 2 mM DTT at pH 7.5. The kinase reaction was stopped by adding 10 μl of the ALPHA bead mix (10 μg/ml, #6760617/PerkinElmer), pre-incubated with anti-phospho MBP antibody (320 pM, #05-429/Upstate), in 25 mM Tris, 200 mM NaCl, 100 mM EDTA and 0.3% BSA, and left to stand overnight.
(§8) The luminiscence was detected the next morning in a Fusion™ alpha instrument (Perkin Elmer).
(§9) The calculation of % inhibition values per substance concentration was done by means of the following formula from the raw data determined in the Fusion™ alpha:
(§10) The controls were determined 8 fold and the substance samples 2 fold. 0% control contained neither any ATP nor any substrate. The 100% control contained no test substance. The IC50 values were determined with GraphPadPrism.

[3] = tested on: Hct116; test: XTT assay, anti-proliferative activity, Hct116; format: cell-based; conditions: Homo sapiens, HCT-116; 45 h incubation
Description: as §1, §2, §3, §4, §5

[4] = molecular target: p38alpha (Homo sapiens, UniProt Q16539); test: Cell-free kinase assay (ALPHA technology) p38alpha; format: biochemical; conditions: 10 μM ATP
Chain of p38alpha (Q16539 whole entry): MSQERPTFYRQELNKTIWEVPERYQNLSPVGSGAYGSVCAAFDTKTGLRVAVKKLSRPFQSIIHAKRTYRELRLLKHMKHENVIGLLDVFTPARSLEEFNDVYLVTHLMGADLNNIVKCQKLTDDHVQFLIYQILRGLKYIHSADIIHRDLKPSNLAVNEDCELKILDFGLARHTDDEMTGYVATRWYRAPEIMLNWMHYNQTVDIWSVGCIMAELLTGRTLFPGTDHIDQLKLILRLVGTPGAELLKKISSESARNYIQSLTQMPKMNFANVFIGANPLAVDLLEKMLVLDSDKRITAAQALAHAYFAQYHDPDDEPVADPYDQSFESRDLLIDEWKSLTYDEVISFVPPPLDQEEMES
Description: as §6, §7, §8, §9, §10

[5] = tested on: T2, Jnk1 + Jnk2; test: Cell-free kinase assay (ALPHA technology) Jnk1 + Jnk2; format: biochemical, human; conditions: 10 μM ATP
T2 construct: fused on or other part: GST tag or His tag (commercial recombinant fusion proteins from Proqinase or Upstate)
Description: as §6, §7, §8, §9, §10

Compound	EC50 [1] [µM]	IC50 [2] [µM]	melting point [°C]	EC50 [3] [µM]	IC50 [4] [µM]	IC50 [5] [µM]
O=C(Nc1cnc2ccc(-c3cc(Cl)c(O)c(Cl)c3)nc2n1)NC1CCCC1 [Compound 563, 1-Cyclopentyl-3-[6-(3,5-dichloro-4-hydroxy-phenyl)-pyrido[2,3-b]pyrazin-3-yl]-urea]	< 1	> 100	262 to 264	< 1		
CC(C)(C)NC(=O)Nc1cnc2ccc(-c3cc(Cl)c(O)c(Cl)c3)nc2n1 [Compound 553, 1-tert-Butyl-3-[6-(3,5-dichloro-4-hydroxy-phenyl)-pyrido[2,3-b]pyrazin-3-yl]-urea]	< 5	> 100	251 to 253	< 5	> 100	< 100
CCNC(=O)Nc1ccc2ncc(-c3cccs3)nc2n1 [Compound 152, 1-Ethyl-3-(3-thiophen-2-yl-pyrido[2,3-b]pyrazin-6-yl)-urea]	< 10		227 to 228	< 10		
CCNC(=S)Nc1ccc2ncc(-c3cc(Cl)c(O)c(Cl)c3)nc2n1 [Compound 138, 1-[3-(3,5-Dichloro-4-hydroxy-phenyl)-pyrido[2,3-b]pyrazin-6-yl]-3-ethyl-thiourea]	< 10			< 10		
CCNC(=S)Nc1ccc2ncc(Nc3ccc(O)c(OC)c3)nc2n1 [Compound 150, 1-Ethyl-3-[3-(4-hydroxy-3-methoxy-phenylamino)-pyrido[2,3-b]pyrazin-6-yl]-thiourea]	< 5		269	< 5		
COc1cc(-c2ccc3ncc(NC(=O)NC4CCCC4)nc3n2)ccc1O [Compound 20, 1-Cyclopentyl-3-[6-(4-hydroxy-3-methoxy-phenyl)-pyrido[2,3-b]pyrazin-3-yl]-urea]		> 100	222 to 225		> 100	> 100
CCNC(=S)Nc1ccc2ncc(-c3cc(OC)c(OC)c(OC)c3)nc2n1 [Compound 134, 1-Ethyl-3-[3-(3,4,5-trimethoxy-phenyl)-pyrido[2,3-b]pyrazin-6-yl]-thiourea]	< 5		230	< 5		
COc1cc(-c2ccc3ncc(NC(=O)NCCCl)nc3n2)ccc1O [Compound 173, 1-(2-Chloro-ethyl)-3-[6-(4-hydroxy-3-methoxy-phenyl)-pyrido[2,3-b]pyrazin-3-yl]-urea]	< 1	< 50	215 to 218	< 1	< 50	< 31.6
CNC(=S)Nc1cnc2ccc(-c3ccc(O)c(OC)c3)nc2n1 [Compound 526, 1-[6-(4-Hydroxy-3-methoxy-phenyl)-pyrido[2,3-b]pyrazin-3-yl]-3-methyl-thiourea]	< 1	> 100	279 to 280	< 5	< 50	> 100
CCNC(=S)Nc1ccc2ncc(-c3cnn(C)c3)nc2n1 [Compound 113, 1-Ethyl-3-[3-(1-methyl-1H-pyrazol-4-yl)-pyrido[2,3-b]pyrazin-6-yl]-thiourea]	< 5		242	< 5		
CCNC(=S)Nc1ccc2ncc(Nc3ccc(C)cc3)nc2n1 [Compound 126, 1-Ethyl-3-(3-p-tolylamino-pyrido[2,3-b]pyrazin-6-yl)-thiourea]	< 5		278	< 5		
COc1cc(-c2ccc3ncc(NC(=O)NC4CCN(C(=O)C(F)(F)F)CC4)nc3n2)ccc1O [Compound 30, 1-[6-(4-Hydroxy-3-methoxy-phenyl)-pyrido[2,3-b]pyrazin-3-yl]-3-[1-(2,2,2-trifluoro-acetyl)-piperidin-4-yl]-urea]		< 10	236 to 239		< 10	< 31.6
CCNC(=S)Nc1ccc2ncc(Nc3ccccc3)nc2n1 [Compound 148, 1-Ethyl-3-(3-phenylamino-pyrido[2,3-b]pyrazin-6-yl)-thiourea]	< 5		285	< 10		
CCNC(=S)Nc1ccc2ncc(-c3ccc(N)c(OC)c3)nc2n1 [Compound 140, 1-[3-(4-Amino-3-methoxy-phenyl)-pyrido[2,3-b]pyrazin-6-yl]-3-ethyl-thiourea]	< 5			< 5		
CCNC(=O)Nc1ccc2ncc(Nc3cccc(OC)c3)nc2n1 [Compound 89, 1-Ethyl-3-[3-(3-methoxy-phenylamino)-pyrido[2,3-b]pyrazin-6-yl]-urea]	< 5		216 to 219	< 5		
CCCCCNC(=S)Nc1ccc2ncc(Nc3cc(OC)c(OC)c(OC)c3)nc2n1 [Compound 702, 1-Pentyl-3-[3-(3,4,5-trimethoxy-phenylamino)-pyrido[2,3-b]pyrazin-6-yl]-thiourea]			210			
COc1ccc(NC(=O)Nc2cnc3ccc(-c4ccc(O)c(OC)c4)nc3n2)cc1 [Compound 625, 1-(4-Methoxy-phenyl)-3-[6-(4-hydroxy-3-methoxy-phenyl)-pyrido[2,3-b]pyrazin-3-yl]-urea]			235 to 238			
CCNC(=O)Nc1ccc2ncc(-c3ccc([N+](=O)[O-])cc3)nc2n1 [Compound 131, 1-Ethyl-3-[3-(4-nitro-phenyl)-pyrido[2,3-b]pyrazin-6-yl]-urea]			> 350			
COc1cc(-c2ccc3ncc(NC(=O)Nc4ccc(-n5cccc5)cc4)nc3n2)ccc1O [Compound 623, 1-[6-(4-Hydroxy-3-methoxy-phenyl)-pyrido[2,3-b]pyrazin-3-yl]-3-(4-pyrrol-1-yl-phenyl)-urea]			263 to 265			
COc1cc(-c2ccc3ncc(NC(=O)NC4CCCCCCCCCCC4)nc3n2)ccc1O [Compound 628, 1-Cyclododecyl-3-[6-(4-hydroxy-3-methoxy-phenyl)-pyrido[2,3-b]pyrazin-3-yl]-urea]			233 to 235			
CCNC(=O)Nc1ccc2ncc(Nc3ccccc3OC)nc2n1 [Compound 153, 1-Ethyl-3-[3-(2-methoxy-phenylamino)-pyrido[2,3-b]pyrazin-6-yl]-urea]			225			
O=C(Nc1cnc2ccc(-c3cc(Cl)c(O)c(Cl)c3)nc2n1)Nc1cccs1 [Compound 560, 1-[6-(3,5-Dichloro-4-hydroxy-phenyl)-pyrido[2,3-b]pyrazin-3-yl]-3-thiophen-2-yl-urea]			253 to 255			
COc1ccc(-c2ccc3ncc(NC(=O)c4ccccc4)nc3n2)cc1OC [Compound 660, N-[6-(3,4-Dimethoxy-phenyl)-pyrido[2,3-b]pyrazin-3-yl]-benzamide]			168 to 170			
CCNC(=O)Nc1ccc2ncc(-c3ccc(NC(=O)OCCOC)c(OC)c3)nc2n1 [Compound 40, {4-[6-(3-Ethyl-ureido)-pyrido[2,3-b]pyrazin-3-yl]-2-methoxy-phenyl}-carbamic acid 2-methoxy-ethyl ester]			> 240			
